In ChEMBL document CHEMBL1201862, “PubChem BioAssay data set” (2004):
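Assay format: 96-well plates, 48-hour exposure. GI50: concentration for 50% inhibition of growth.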 Activity calls are given as the source filed them. Rule as the data show it: active = GI50 up to about 1.1 µM and inactive = higher.

Experiments:
Assay in all cases: DTP human tumour cell line panel, 48 h
[1] = tested on: A498
[2] = tested on: A549
[3] = tested on: CCRF-CEM
[4] = tested on: EKVX
[5] = tested on: HCC 2998
[6] = tested on: KM12
[7] = tested on: MOLT-4
[8] = tested on: RPMI-8226
[9] = tested on: SF-268
[10] = tested on: SF-539
[11] = tested on: SK-MEL-28
[12] = tested on: SK-MEL-2
[13] = tested on: SK-OV-3
[14] = tested on: SNB-19
[15] = tested on: SW-620
[16] = tested on: UO-31
[17] = tested on: DLD-1
[18] = tested on: IGROV-1
[19] = tested on: K562
[20] = tested on: SR

Compound	GI50 [1]	GI50 [2]	GI50 [3]	GI50 [4]	GI50 [5]	GI50 [6]	GI50 [7]	GI50 [8]	GI50 [9]	GI50 [10]	GI50 [11]	GI50 [12]	GI50 [13]	GI50 [14]	GI50 [15]	GI50 [16]	GI50 [17]	GI50 [18]	GI50 [19]	GI50 [20]
Cc1cn(Cc2cn(CC3OC(n4cc(C)c(=O)[nH]c4=O)CC3O)nn2)c(=O)[nH]c1=O (centres undefined)	> 100 µM (inactive)	> 100 µM (inactive)	> 100 µM (inactive)	> 100 µM (inactive)	> 100 µM (inactive)	> 100 µM (inactive)	> 100 µM (inactive)	> 100 µM (inactive)	> 100 µM (inactive)	> 100 µM (inactive)	> 100 µM (inactive)	> 100 µM (inactive)	> 100 µM (inactive)	> 100 µM (inactive)	> 100 µM (inactive)	> 100 µM (inactive)				
CCOc1ccc2nc(NC(=O)C(=O)C(C(=O)c3ccccc3F)C3OC(=O)c4ccccc43)sc2c1 (centres undefined)	25.8 µM (inactive)	31.6 µM (inactive)	12.3 µM (inactive)	19.1 µM (inactive)	15.9 µM (inactive)	0.723 µM (active)	10.3 µM (inactive)	19.1 µM (inactive)	16.1 µM (inactive)	10.3 µM (inactive)	24.4 µM (inactive)	19.6 µM (inactive)	24.1 µM (inactive)	14.5 µM (inactive)	19.3 µM (inactive)	18.4 µM (inactive)	25.3 µM (inactive)	25.6 µM (inactive)	21.8 µM (inactive)	11.7 µM (inactive)
O=C(O)CN1CCN(CC(=O)O)CCN(CC(=O)O)CC1	> 33.6 µM (inactive)	3.03 µM (inactive)	3.91 µM (inactive)	59.2 µM (inactive)	3.15 µM (inactive)	5.81 µM (inactive)	4.71 µM (inactive)	5.36 µM (inactive)	23.6 µM (inactive)	> 25.3 µM (inactive)	> 72.1 µM (inactive)	> 43.3 µM (inactive)	8.38 µM (inactive)	> 100 µM (inactive)	8.47 µM (inactive)	83.8 µM (inactive)		4.85 µM (inactive)	2.31 µM (inactive)	3.27 µM (inactive)
O=c1c2cccnc2oc2c(Cl)cc(-c3nnn[nH]3)cc12	> 100 µM (inactive)	> 100 µM (inactive)	> 100 µM (inactive)	> 100 µM (inactive)	> 100 µM (inactive)	> 100 µM (inactive)			> 100 µM (inactive)	> 100 µM (inactive)	> 100 µM (inactive)	> 100 µM (inactive)	> 100 µM (inactive)	> 100 µM (inactive)	> 100 µM (inactive)	24.7 µM (inactive)		> 100 µM (inactive)	> 100 µM (inactive)	> 100 µM (inactive)
CC1OC(CO)(n2cnc3c(N)ncnc32)C(O)C1O (centres undefined)	> 100 µM (inactive)	> 100 µM (inactive)	> 100 µM (inactive)	> 100 µM (inactive)	> 100 µM (inactive)	> 100 µM (inactive)	> 100 µM (inactive)	> 100 µM (inactive)	> 100 µM (inactive)	> 100 µM (inactive)	> 100 µM (inactive)	> 100 µM (inactive)	> 100 µM (inactive)	> 100 µM (inactive)	> 100 µM (inactive)	> 100 µM (inactive)	> 100 µM (inactive)	> 100 µM (inactive)	> 100 µM (inactive)	
C=C(/C=C/C=C(\C)CCC=C(C)C)[C@@H]1CC[C@]2([C@H](CCCO)/C(=C(/C)C=O)CC[C@]2(C)O)[C@@H]1O		13.3 µM (inactive)	15.8 µM (inactive)	22.4 µM (inactive)	20.9 µM (inactive)	1.41 µM (inactive)	7.62 µM (inactive)		19.2 µM (inactive)	12.6 µM (inactive)	15.1 µM (inactive)	20.2 µM (inactive)	> 100 µM (inactive)	22.2 µM (inactive)	16.3 µM (inactive)	19.5 µM (inactive)	18.4 µM (inactive)	32.2 µM (inactive)	11.2 µM (inactive)	18.8 µM (inactive)
